In paper PMC12194305, “Assessing Bioconcentration and Biotransformation of BDE-47 In Vitro: The Relevance of Bioavailable and Intracellular Concentrations” (Journal of Xenobiotics, 2025):
“And” between values parts separate entries of the source, which are not always exact repeats. Equal values may be shown once. Read-outs that look alike come from different tables or passages of the source.

Columns and labels:
[1] = tested on: ZFL cells; test: Biotransformation of BDE-47 in ZFL cells (metabolites in cells and medium)
[2] = tested on: HepG2 cells; set-up: method as in PMID 37289209; settings: HepG2 cells 48 h, 20 mg·L^−1 BDE-47, calculated with estimated Cfree percentage, cited from earlier work
[3] = tested on: zebrafish eleutheroembryos; set-up: method as in PMID 36705440; settings: zebrafish embryos 48 h, larvae samples; cited from earlier work
[4] = partition constant PA fiber/medium; cited from earlier work
[5] = tested on: ZFL cells; set-up: method as in PMID 39103099; settings: exposure to 10 mg·L^−1 PHE, previous study; cited from earlier work
[6] = Experimental determination of free bioavailable concentration (Cfree,exp) in exposure medium by SPME; format: in vitro ADME; settings: for Cfree, exp: 24–48 h
Method: In parallel with the exposure experiment for the evaluation of bioaccumulation and biotransformation described in the previous sections, an experiment was performed to estimate experimentally the free bioavailable concentration (Cfree,exp) in the test medium. For this purpose, an experiment was designed to simulate the test conditions, and Cfree was determined using solid-phase microextraction (SPME), following the fiber method developed by Henneberger et al..
PDMS-coated glass microfibers (30 µm thick, 13.19 µL/m coating volume) were cut into 1.5 cm pieces and cleaned in methanol for more than 24 h prior to the experiment, with the solvent replaced at least three times. The cleaned and dried fiber was placed in a glass vial with 1 mL of sample exposure medium containing 1.8 and 2.6 mg·L^−1 BDE-47. Three replicates were prepared for each condition. A portion of the initial sample was stored at −20 °C until analysis. The vials were then sealed and incubated with rotation at 28 °C for 72 h until equilibrium of BDE-47 distribution among the fiber, medium, and binding to the predominant serum protein of the culture (Bovine serum albumin, BSA) was reached. Once at equilibrium, the fibers were extracted from the vials and desorbed with 400 µL isooctane for 24 h with rotation. Finally, the extract was analyzed by GC-MS-µECD, as described in Section 2.5. The concentration of BDE-47 in the initial sample (Cmed,0h) and in the resulting media after equilibration (Cmed,eq) was determined according to the procedure described in Section 2.5, to confirm the actual mass balance.
Since this study evaluates and discusses the behavior of BDE-47 in comparison to observations from a previous study with phenanthrene, as explained in the introduction section, the experimental Cfree of phenanthrene was also determined, as it had not been measured previously. In this case, the difference in the process was that PA fibers (36 µm thick, 16.71 µL/m coating volume) were used. Samples of 10 and 20 mg·L^−1 PHE were prepared, and the fibers and samples were incubated for 24–48 h until equilibrium was reached, and desorbed with hexane for 3 h.
To determine the free concentration, concentration in the SPME fiber (Cfiber) was first estimated using Equation (1) from the concentration measured in the desorption extract (Cdes), the desorption volume (Vdes) and the coating volume of the fiber (Vfiber). This volume was estimated according to the coating volume and the length of the fiber.(1) Cfiber=Cdes·Vdes/Vfiber
Next, Cfree,exp was determined at the time before the SPME fiber was added to the system, according to Equation (2). For this, the concentration measured in the fiber equilibrated with the medium (PDMS-BDE-47-BSA or PA-PHE-BSA), the concentration measured in the initial sample (Cmed,0h), and the partition constant of the equilibrium formed between the fiber and the medium (log DPDMS/medium; BDE-47 = 5.84 [25]; log DPA/medium; PHE = 6.69 [26]) were used.(2) Cfree=Cmed,0h·Vsample/Dfiber/medium·Cmed,0h·Vsample/Cfiber−Vfiber

[7] = tested on: ZFL cells; settings: cited from earlier work; for Ratio MBM/experimental of internal concentration: ref De Oro-Carretero and Sanz-Landaluze 2024
[8] = set-up: method as in PMID 39103099; settings: binding constant to BSA protein of FBS; cited from earlier work
[9] = set-up: method as in PMID 36264934; settings: dialysis, DMEM + 10% newborn calf serum, Cnom 5 μmol·L^−1, 1% DMSO; cited from earlier work

## Oc1cc(Br)ccc1Oc1ccc(Br)cc1Br [2′-OH-BDE-28]
[1]; BDE-47 at 1.6 and 2.8 mg·L^−1, 24–72 h
  detection of the metabolite in ZFL cell and medium samples on exposure to BDE-47: significant and increasing concentration over time

## Oc1c(Br)ccc(Oc2ccc(Br)cc2Br)c1Br [3-OH, 3-OH-BDE-47]
[1]; medium samples, 24 h, Cnominal BDE-47 1.6 mg·L^−1
  biotransformation ratio metabolite / free bioavailable BDE-47 concentration: 0.07
[1]; medium samples, 24 h, Cnominal BDE-47 2.8 mg·L^−1
  biotransformation ratio metabolite / free bioavailable BDE-47 concentration: 0.08
[1]; medium samples, 48 h, Cnominal BDE-47 1.6 mg·L^−1
  biotransformation ratio metabolite / free bioavailable BDE-47 concentration: 0.08
[1]; medium samples, 48 h, Cnominal BDE-47 2.8 mg·L^−1
  biotransformation ratio metabolite / free bioavailable BDE-47 concentration: 0.08
[1]; medium samples, 72 h, Cnominal BDE-47 1.6 mg·L^−1
  biotransformation ratio metabolite / free bioavailable BDE-47 concentration: 0.09
[1]; medium samples, 72 h, Cnominal BDE-47 2.8 mg·L^−1
  biotransformation ratio metabolite / free bioavailable BDE-47 concentration: 0.15
[2]; medium samples
  biotransformation ratio metabolite / BDE-47 concentration: 0.13

## COc1cc(Oc2ccc(Br)cc2Br)c(Br)cc1Br [5-MeO, 5-MeO-BDE-47]
[1]; cell samples, 24 h, Cnominal BDE-47 1.6 mg·L^−1
  biotransformation ratio metabolite / free bioavailable BDE-47 concentration: 0.11
[1]; cell samples, 24 h, Cnominal BDE-47 2.8 mg·L^−1
  biotransformation ratio metabolite / free bioavailable BDE-47 concentration: 0.17
[1]; cell samples, 48 h, Cnominal BDE-47 1.6 mg·L^−1
  biotransformation ratio metabolite / free bioavailable BDE-47 concentration: 0.12
[1]; cell samples, 48 h, Cnominal BDE-47 2.8 mg·L^−1
  biotransformation ratio metabolite / free bioavailable BDE-47 concentration: 0.18
[1]; cell samples, 72 h, Cnominal BDE-47 1.6 mg·L^−1
  biotransformation ratio metabolite / free bioavailable BDE-47 concentration: 0.15
[1]; cell samples, 72 h, Cnominal BDE-47 2.8 mg·L^−1
  biotransformation ratio metabolite / free bioavailable BDE-47 concentration: 0.20
[3]
  biotransformation ratio metabolite / BDE-47 concentration: 0.06–0.13
[2]; cell samples
  biotransformation ratio metabolite / BDE-47 concentration: 0.10

## Oc1cc(Oc2ccc(Br)cc2Br)c(Br)cc1Br [5-OH, 5-OH-BDE-47]
[2]; medium samples
  biotransformation ratio metabolite / BDE-47 concentration: 0.2

## c1ccc2c(c1)ccc1ccccc12 [PHE, phenanthrene]
[4]
  log DPA/medium: 6.69
[5]
  BCF48 h: 393 L/kg
  BCFk: 986 L/kg
[6]; Cnom 10 mg·L^−1, % of total concentration
  % Cfree, exp: 2.4% and 2.4 ± 0.2%
[6]; Cnom 10 mg·L^−1, PA fiber
  Cfree, exp: (0.22 ± 0.02) mg·L^−1
[6]; Cnom 20 mg·L^−1, % of total concentration
  % Cfree, exp: 2.9% and 2.9 ± 0.2%
[6]; Cnom 20 mg·L^−1, PA fiber
  Cfree, exp: (0.52 ± 0.04) mg·L^−1
[7]; 24h, 10 mg·L-1, ZFL cells
  Ratio MBM/experimental of internal concentration: 491%
[7]; 24h, 50 mg·L-1, ZFL cells
  Ratio MBM/experimental of internal concentration: 510%
[7]; 48h, 10 mg·L-1, ZFL cells
  Ratio MBM/experimental of internal concentration: 532%
[7]; 48h, 50 mg·L-1, ZFL cells
  Ratio MBM/experimental of internal concentration: 449%
[7]; 72h, 10 mg·L-1, ZFL cells
  Ratio MBM/experimental of internal concentration: 421%
[7]; 72h, 50 mg·L-1, ZFL cells
  Ratio MBM/experimental of internal concentration: 402%
[7]; ZFL cells, previous study
  BCFMBM: 1656 L/kg
  ratio of MBM vs. experimental Ccell: above 100%
[7]; assays with ZFL cells, previous study
  free concentration as % of total concentration: 1.7%
[8]
  log DBSA/W: 3.81

## CC/C(=C(\c1ccccc1)c1ccc(OCCN(C)C)cc1)c1ccccc1 [tamoxifen]
[9]
  decrease of free concentration from the initial concentration: up to 50%
